Results taken from patent US12110286B2, “Benzimidazolone derived inhibitors of BCL6” (Cancer Research Technology Limited, priority 2017, dated 2024).

Molecular target: Trx-6×His-BCL6 (human BCL6 BTB domain covering amino-acid sequence 5-129) (Homo sapiens (Human), UniProt P41182)
Experiment: HTRF in vitro assay (BCL6 / BCOR-AF633 peptide)
Format: binding
Conditions: further generated data; 1 nM Trx-6×His-BCL6, 300 nM BCOR-AF633 peptide, 0.5 nM anti-6×His-Terbium cryptate
Description: The % inhibition at each concentration was calculated by normalising FRET ratio to the appropriate high (DMSO with all reagents) and low (DMSO without BCL6) controls.

Structure (SMILES) | HTRF pIC50
C[C@@H]1C[C@H](C)CN(c2cc(Nc3ccc4c(c3)n(CCC(C)(C)O)c(=O)n4C)c(Cl)cn2)C1 [Example 36d, 5-((5-chloro-2-((3S,5R)-3,5-dimethylpiperidin-1-yl)pyridin-4-yl)amino)-3-(3-hydroxy-3-methylbutyl)-1-methyl-1,3-dihydro-2H-benzo[d]imidazol-2-one] | 5.48
CCOC(=O)c1cc(Nc2ccc3c(c2)n(CCC(C)(C)O)c(=O)n3C)n2nccc2n1 [Example 1h, Ethyl 7-[[3-(3-hydroxy-3-methyl-butyl)-1-methyl-2-oxo-benzimidazol-5-yl]amino]pyrazolo[1,5-a]pyrimidine-5-carboxylate] | 5.94
C[C@@H](O)CCn1c(=O)n(C)c2ccc(Nc3cc(Cl)ncc3Cl)cc21 [Example 1m, 5-[(2,5-dichloro-4-pyridyl)amino]-3-[(3R)-3-hydroxybutyl]-1-methyl-benzimidazol-2-one] | 5.47
COC(=O)C(CCn1c(=O)n(C)c2ccc(Nc3ccnc(Cl)c3C#N)cc21)OCC1CC1 (centres unmarked) [Example 10e] | 5.38
Cn1c(=O)n(CCC(C)(C)O)c2cc(Nc3nc(N4CC5CC(C4)C5(F)F)ncc3Cl)ccc21 [Example 35w, 5-((5-chloro-2-(6,6-difluoro-3-azabicyclo[3.1.1]heptan-3-yl)pyrimidin-4-yl)amino)-3-(3-hydroxy-3-methylbutyl)-1-methyl-1,3-dihydro-2H-benzo[d]imidazol-2-one] | 5.74
COC(=O)C(C)CCn1c(=O)n(C)c2ccc(Nc3nc(C)ncc3Cl)cc21 (centres unmarked) [Example 3c, Methyl 4-[6-[(5-chloro-2-methyl-pyrimidin-4-yl)amino]-3-methyl-2-oxo-benzimidazol-1-yl]-2-methyl-butanoate] | 5.37
CCOC(CCn1c(=O)n(C)c2ccc(Nc3ccnc(Cl)c3C#N)cc21)C(=O)OC (centres unmarked) [Example 10c] | 5.69
Cn1c(=O)n(CCC(C)(C)O)c2cc(Nc3nc(N4CC(C(F)(F)F)OC(C)(C)C4)ncc3Cl)ccc21 (centres unmarked) [Example 20k] | 6.11
CSc1ncc(Cl)c(Nc2ccc3c(c2)n(CCC(C)(C)O)c(=O)n3C)n1 [Example 22a, 5-((5-chloro-2-(methylthio)pyrimidin-4-yl)amino)-3-(3-hydroxy-3-methylbutyl)-1-methyl-1,3-dihydro-2H-benzo[d]imidazol-2-one] | 6.19
C[C@@H]1CN(c2ncc(Cl)c(Nc3ccc4c(c3)n(CCC(C)(C)O)c(=O)n4C)n2)C[C@H](C)O1 [Example 20j] | 6.80
COC(=O)C(C)CCn1c(=O)n(C)c2ccc(Nc3cc(-c4nc(C)no4)nc(Cl)c3C#N)cc21 (centres unmarked) [Example 5, Methyl 4-[6-[[2-chloro-3-cyano-6-(3-methyl-1,2,4-oxadiazol-5-yl)-4-pyridyl]amino]-3-methyl-2-oxo-benzimidazol-1-yl]-2-methyl-butanoate] | 6.19
Cn1c(=O)n(CCC(C)(C)O)c2cc(Nc3nc(N4CCOCC4)ncc3Cl)ccc21 [Example 20t] | 6.51

Other lines, results leading:

HTRF pIC50 | Structure (SMILES)
6.22 | C[C@@H]1C[C@H](C)CN(C(=O)c2cc(Nc3ccc4c(c3)n(CCC(C)(C)O)c(=O)n4C)c(Cl)cn2)C1 [Example 36e, 5-((5-chloro-2-((3R,5S)-3,5-dimethylpiperidine-1-carbonyl)pyridin-4-yl)amino)-3-(3-hydroxy-3-methylbutyl)-1-methyl-1,3-dihydro-2H-benzo[d]imidazol-2-one]
5.83 | CCC(=O)CCn1c(=O)n(C)c2ccc(Nc3ccnc(Cl)c3C#N)cc21 [Example 19a, 2-chloro-4-((1-methyl-2-oxo-3-(3-oxopentyl)-2,3-dihydro-1H-benzo[d]imidazol-5-yl)amino)nicotinonitrile]
6.05 | Cc1cc(-c2ncc(Cl)c(Nc3ccc4c(c3)n(CCC(C)(C)O)c(=O)n4C)n2)n(C)n1 [Example 23b]
5.90 | Cn1c(=O)n(CCC2(O)CCC2)c2cc(Nc3ccnc(Cl)c3C#N)ccc21 [Example 18a, 2-chloro-4-((3-(2-(1-hydroxycyclobutyl)ethyl)-1-methyl-2-oxo-2,3-dihydro-1H-benzo[d]imidazol-5-yl)amino)nicotinonitrile]
6.02 | Cc1cc(C)n(-c2ncc(Cl)c(Nc3ccc4c(c3)n(CCC(C)(O)CCO)c(=O)n4C)n2)n1 (centres unmarked) [Example 15e]
6.01 | CN1CC(Cn2c(=O)n(C)c3ccc(Nc4nc(N5CC(C)(C)OC(C)(C)C5)ncc4Cl)cc32)(C(C)(C)O)OC1=O (centres unmarked) [Example 20b]
5.74 | CC(C)(O)CCn1c(=O)n(CCC(C)(C)O)c2c(Cl)cc(Nc3nc(N4CC(C)(C)OC(C)(C)C4)ncc3Cl)cc21 [Example 35u, 4-chloro-6-((5-chloro-2-(2,2,6,6-tetramethylmorpholino)pyrimidin-4-yl)amino)-1,3-bis(3-hydroxy-3-methylbutyl)-1,3-dihydro-2H-benzo[d]imidazol-2-one]
6.21 | Cn1c(=O)n(CCC(C)(C)O)c2cc(Nc3ccnc(F)c3Cl)ccc21 [Example 29a, 5-((3-chloro-2-fluoropyridin-4-yl)amino)-3-(3-hydroxy-3-methylbutyl)-1-methyl-1,3-dihydro-2H-benzo[d]imidazol-2-one]
5.88 | Cn1c(=O)n(CCC(C)(C)O)c2cc(Nc3ccnc(Cl)c3Cl)ccc21 [Example 29b, 5-((2,3-dichloropyridin-4-yl)amino)-3-(3-hydroxy-3-methylbutyl)-1-methyl-1,3-dihydro-2H-benzo[d]imidazol-2-one]
5.54 | Cn1c(=O)n(CCC(C)(C)O)c2cc(Nc3nc(Cl)nc(Cl)c3Cl)ccc21 [Example 22i]
5.76 | COCC(C)(O)CCn1c(=O)n(C)c2ccc(Nc3nc(-n4nc(C)cc4C)ncc3Cl)cc21 (centres unmarked) [Example 15j]
6.46 | Cn1c(=O)n(CCC(C)(C)O)c2cc(Nc3nc(N4CCCC(C#N)C4)ncc3Cl)ccc21 (centres unmarked) [Example 42b, 1-(5-chloro-4-((3-(3-hydroxy-3-methylbutyl)-1-methyl-2-oxo-2,3-dihydro-1H-benzo[d]imidazol-5-yl)amino)pyrimidin-2-yl)piperidine-3-carbonitrile]
5.55 | CC(Cn1c(=O)n(C)c2ccc(Nc3ccnc(Cl)c3C#N)cc21)C(C)(C)O (centres unmarked) [Example 27e, 2-chloro-4-((3-(3-hydroxy-2,3-dimethylbutyl)-1-methyl-2-oxo-2,3-dihydro-1H-benzo[d]imidazol-5-yl)amino)nicotinonitrile]
5.70 | C[C@@H]1CCN(c2ncc(Cl)c(Nc3ccc4c(c3)n(CCC(C)(C)O)c(=O)n4C)n2)C[C@H](C)C1 [Example 35y, 5-((5-chloro-2-((3R,5S)-3,5-dimethylazepan-1-yl)pyrimidin-4-yl)amino)-3-(3-hydroxy-3-methylbutyl)-1-methyl-1,3-dihydro-2H-benzo[d]imidazol-2-one]

Same assay, conditions: initially generated data; 10 nM Trx-6×His-BCL6, 300 nM BCOR-AF633 peptide, 1 nM anti-6×His-Terbium cryptate

Structure (SMILES) | HTRF pIC50
CCOC(=O)c1cc(Nc2ccc3c(c2)n(CCC(C)(C)O)c(=O)n3C)n2nccc2n1 [Example 1h, Ethyl 7-[[3-(3-hydroxy-3-methyl-butyl)-1-methyl-2-oxo-benzimidazol-5-yl]amino]pyrazolo[1,5-a]pyrimidine-5-carboxylate] | 5.79
C[C@@H](O)CCn1c(=O)n(C)c2ccc(Nc3cc(Cl)ncc3Cl)cc21 [Example 1m, 5-[(2,5-dichloro-4-pyridyl)amino]-3-[(3R)-3-hydroxybutyl]-1-methyl-benzimidazol-2-one] | 5.62
COC(=O)C(CCn1c(=O)n(C)c2ccc(Nc3ccnc(Cl)c3C#N)cc21)OCC1CC1 (centres unmarked) [Example 10e] | 5.52
COC(=O)C(C)CCn1c(=O)n(C)c2ccc(Nc3nc(C)ncc3Cl)cc21 (centres unmarked) [Example 3c, Methyl 4-[6-[(5-chloro-2-methyl-pyrimidin-4-yl)amino]-3-methyl-2-oxo-benzimidazol-1-yl]-2-methyl-butanoate] | 5.37
CCOC(CCn1c(=O)n(C)c2ccc(Nc3ccnc(Cl)c3C#N)cc21)C(=O)OC (centres unmarked) [Example 10c] | 5.65
COC(=O)C(C)CCn1c(=O)n(C)c2ccc(Nc3cc(-c4nc(C)no4)nc(Cl)c3C#N)cc21 (centres unmarked) [Example 5, Methyl 4-[6-[[2-chloro-3-cyano-6-(3-methyl-1,2,4-oxadiazol-5-yl)-4-pyridyl]amino]-3-methyl-2-oxo-benzimidazol-1-yl]-2-methyl-butanoate] | 5.99

Same assay, conditions: result in words

Structure (SMILES) | activity in the HTRF assay
Cn1c(=O)n(CC(O)C(C)(C)C)c2cc(Nc3ccnc(Cl)c3C#N)ccc21 (centres unmarked) [2-chloro-4-((3-(2-hydroxy-3,3-dimethylbutyl)-1-methyl-2-oxo-2,3-dihydro-1H-benzo[d]imidazol-5-yl)amino)nicotinonitrile] | did not exhibit the desired activity
Cn1c(=O)n(CC2(C#N)CCOCC2)c2cc(Nc3ccnc(Cl)c3C#N)ccc21 [2-chloro-4-((3-((4-cyanotetrahydro-2H-pyran-4-yl)methyl)-1-methyl-2-oxo-2,3-dihydro-1H-benzo[d]imidazol-5-yl)amino)nicotinonitrile] | did not exhibit the desired activity
Cn1c(=O)n(CCC(C)(C)O)c2cc(Nc3cc(Cl)ncc3C(F)F)ccc21 [5-((2-chloro-5-(difluoromethyl)pyridin-4-yl)amino)-3-(3-hydroxy-3-methylbutyl)-1-methyl-1,3-dihydro-2H-benzo[d]imidazol-2-one] | did not exhibit the desired activity
Cn1c(=O)n(CCC(C)(C)O)c2cc(Nc3nc(-n4ccc(C(F)(F)F)n4)ncc3Cl)ncc21 [6-((5-chloro-2-(3-(trifluoromethyl)-1H-pyrazol-1-yl)pyrimidin-4-yl)amino)-1-(3-hydroxy-3-methylbutyl)-3-methyl-1,3-dihydro-2H-imidazo[4,5-c]pyridin-2-one] | did not exhibit the desired activity
Cn1c(=O)n(CC2CCCN(C(=O)OC(C)(C)C)C2)c2cc(Nc3ccnc(Cl)c3C#N)ccc21 (centres unmarked) [tert-butyl 3-((6-((2-chloro-3-cyanopyridin-4-yl)amino)-3-methyl-2-oxo-2,3-dihydro-1H-benzo[d]imidazol-1-yl)methyl)piperidine-1-carboxylate] | did not exhibit the desired activity
Cc1cncnc1Nc1ccc2c(c1)n(C)c(=O)n2C [1,3-dimethyl-5-((5-methylpyrimidin-4-yl)amino)-1,3-dihydro-2H-benzo[d]imidazol-2-one] | did not exhibit the desired activity
CN1CCC[C@@H]1Cn1c(=O)n(C)c2ccc(Nc3ccnc(Cl)c3C#N)cc21 [(R)-2-chloro-4-((1-methyl-3-((1-methylpyrrolidin-2-yl)methyl)-2-oxo-2,3-dihydro-1H-benzo[d]imidazol-5-yl)amino)nicotinonitrile] | did not exhibit the desired activity
Cn1c(=O)n(CCC(C)(C)O)c2cc(Nc3nc(N4CCC(F)(F)CC4)ncc3Cl)ncc21 [6-((5-chloro-2-(4,4-difluoropiperidin-1-yl)pyrimidin-4-yl)amino)-1-(3-hydroxy-3-methylbutyl)-3-methyl-1,3-dihydro-2H-imidazo[4,5-c]pyridin-2-one] | did not exhibit the desired activity
Cn1c(=O)n(CC2CCN2)c2cc(Nc3ccnc(Cl)c3C#N)ccc21 (centres unmarked) [4-((3-(azetidin-2-ylmethyl)-1-methyl-2-oxo-2,3-dihydro-1H-benzo[d]imidazol-5-yl)amino)-2-chloronicotinonitrile] | did not exhibit the desired activity
